Results from patent publication EP4596574A1, “GLP-1/GCG/GIP TRIPLE-RECEPTOR AGONIST AND USE THEREOF” (Sunshine Lake Pharma Co., Ltd., priority 2022, dated 2024).
pEC50: −log10 of the molar value.

Assays:
Format in all cases: cell-based
[1] = target: T1, GIPR (Homo sapiens, UniProt P48546); test: In vitro cell activity, cAMP production in HEK293 cells expressing GIPR; settings: HEK293-GIPR cells, cAMP; read-out: GIPR (EC50)
T1 construct: expressed in transfected cells; host or cells: HEK293 (HEK293-GIPR)
T1 sequence (P48546 22-466): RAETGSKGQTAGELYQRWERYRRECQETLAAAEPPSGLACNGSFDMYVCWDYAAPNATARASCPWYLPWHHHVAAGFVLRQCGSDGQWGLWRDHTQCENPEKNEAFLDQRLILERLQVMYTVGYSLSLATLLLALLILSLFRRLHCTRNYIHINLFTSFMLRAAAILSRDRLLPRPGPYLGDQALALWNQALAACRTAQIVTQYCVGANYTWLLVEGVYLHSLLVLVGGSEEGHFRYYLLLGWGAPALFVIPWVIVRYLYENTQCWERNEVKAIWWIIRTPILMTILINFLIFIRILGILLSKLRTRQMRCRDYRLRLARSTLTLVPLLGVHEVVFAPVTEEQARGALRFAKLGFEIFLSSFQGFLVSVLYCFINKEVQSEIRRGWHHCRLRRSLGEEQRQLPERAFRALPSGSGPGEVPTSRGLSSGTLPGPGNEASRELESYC
Summary of the method: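 HEK293 cells expressing human GIPR, thawed and diluted to 4×10^5 cells/mL, are stimulated with test compound. cAMP is measured by HTRF competition between cAMP-d2 and anti-cAMP cryptate. EC50 comes from a four-parameter nonlinear fit of signal ratio against concentration.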

[2] = target: T2, GLP-1R (Homo sapiens, UniProt P43220); test: In vitro cell activity, cAMP production in HEK293 cells expressing GLP-1R; settings: HEK293-GLP-1R cells, cAMP; read-out: GLP-1R (EC50)
T2 construct: expressed in transfected cells; host or cells: HEK293 (HEK293-GLP-1R)
Summary of the method: (§1)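 cAMP output read as 665/620 nm HTRF ratio after adding cAMP-d2 plus anti-cAMP cryptate and incubating 1 h at room temperature in the dark or overnight at 4 °C. Cells: HEK293 expressing human GLP-1R or GCGR, plated from a 4×10^5 cells/mL suspension. Four-parameter fit gives EC50.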

[3] = target: T3, GCGR (Homo sapiens, UniProt P47871); test: In vitro cell activity, cAMP production in HEK293 cells expressing GCGR; settings: HEK293-GCGR cells, cAMP; read-out: GCGR (EC50)
T3 construct: expressed in transfected cells; host or cells: HEK293 (HEK293-GCGR)
Summary of the method: as §1

T2 sequence (P43220 24-463, species assumed): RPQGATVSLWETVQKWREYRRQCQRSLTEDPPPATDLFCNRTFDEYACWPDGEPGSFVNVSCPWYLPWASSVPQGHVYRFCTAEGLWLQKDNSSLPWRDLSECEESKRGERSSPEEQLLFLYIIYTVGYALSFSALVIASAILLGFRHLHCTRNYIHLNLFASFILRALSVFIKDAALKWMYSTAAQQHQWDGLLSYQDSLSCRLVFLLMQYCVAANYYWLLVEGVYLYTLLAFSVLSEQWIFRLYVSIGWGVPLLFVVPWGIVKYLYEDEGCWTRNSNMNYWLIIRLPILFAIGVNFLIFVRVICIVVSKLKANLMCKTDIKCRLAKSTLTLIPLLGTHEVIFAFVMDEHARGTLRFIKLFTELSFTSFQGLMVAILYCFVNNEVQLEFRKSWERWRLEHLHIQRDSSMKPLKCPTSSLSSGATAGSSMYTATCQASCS
T3 sequence (P47871 26-477, species assumed): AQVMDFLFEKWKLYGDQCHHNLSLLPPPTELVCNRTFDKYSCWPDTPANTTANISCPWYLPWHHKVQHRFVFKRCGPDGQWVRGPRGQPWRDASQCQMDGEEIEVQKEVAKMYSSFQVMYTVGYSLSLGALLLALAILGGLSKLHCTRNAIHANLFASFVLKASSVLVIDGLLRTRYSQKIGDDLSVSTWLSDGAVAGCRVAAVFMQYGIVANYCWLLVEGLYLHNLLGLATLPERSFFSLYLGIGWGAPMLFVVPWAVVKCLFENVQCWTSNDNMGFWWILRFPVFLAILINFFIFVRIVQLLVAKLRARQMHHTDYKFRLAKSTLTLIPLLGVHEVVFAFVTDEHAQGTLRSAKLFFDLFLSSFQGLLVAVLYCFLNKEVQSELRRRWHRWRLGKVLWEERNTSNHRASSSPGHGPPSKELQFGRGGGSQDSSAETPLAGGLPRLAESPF

SMILES	pEC50 [1]	pEC50 [2]	pEC50 [3]
CC[C@H](C)[C@H](NC(=O)[C@H](Cc1ccccc1)NC(=O)[C@H](C)NC(=O)C(C)(C)NC(=O)[C@H](CCC(N)=O)NC(=O)[C@H](C)NC(=O)[C@H](CCCCNC(=O)COCCOCCNC(=O)CC[C@H](NC(=O)CCCCCCCCCCCCCCCCC(=O)O)C(=O)O)NC(=O)[C@H](CCC(=O)O)NC(=O)[C@H](CC(=O)O)NC(=O)[C@H](CC(C)C)NC(=O)[C@H](CC(C)C)NC(=O)[C@@H](NC(=O)[C@H](CO)NC(=O)[C@H](Cc1ccc(O)cc1)NC(=O)[C@H](CC(=O)O)NC(=O)[C@H](CO)NC(=O)[C@@H](NC(=O)[C@](C)(Cc1ccccc1F)NC(=O)[C@@H](NC(=O)CNC(=O)[C@H](CCC(N)=O)NC(=O)C(C)(C)NC(=O)[C@@H](N)Cc1ccc(O)cc1)[C@@H](C)O)[C@@H](C)O)[C@@H](C)CC)C(=O)N[C@@H](CCC(=O)O)C(=O)N[C@@H](Cc1ccc(O)cc1)C(=O)N[C@@H](CC(C)C)C(=O)N[C@@H](CC(C)C)C(=O)N[C@@H](C)C(=O)NCC(=O)NCC(=O)N1CCC[C@H]1C(=O)N[C@@H](CO)C(=O)N[C@@H](CO)C(=O)NCC(=O)N[C@@H](C)C(=O)N1CCC[C@H]1C(=O)N1CCC[C@H]1C(=O)N1CCC[C@H]1C(=O)N[C@@H](CO)C(N)=O [HEC-PT108]	10.27	9.70	9.06
CC[C@H](C)[C@H](NC(=O)[C@H](CO)NC(=O)[C@H](Cc1ccc(O)cc1)NC(=O)[C@H](CC(=O)O)NC(=O)[C@H](CO)NC(=O)[C@@H](NC(=O)[C@](C)(Cc1ccccc1F)NC(=O)[C@@H](NC(=O)CNC(=O)[C@H](Cc1c[nH]cn1)NC(=O)C(C)(C)NC(=O)[C@@H](N)Cc1ccc(O)cc1)[C@@H](C)O)[C@@H](C)O)C(=O)N[C@@H](CC(C)C)C(=O)N[C@@H](CC(C)C)C(=O)N[C@@H](CC(=O)O)C(=O)N[C@@H](CCC(=O)O)C(=O)N[C@@H](CCCCNC(=O)COCCOCCNC(=O)CC[C@H](NC(=O)CCCCCCCCCCCCCCCCC(=O)O)C(=O)O)C(=O)N[C@@H](CCCNC(=N)N)C(=O)N[C@@H](CCC(N)=O)C(=O)NC(C)(C)C(=O)N[C@@H](CCC(=O)O)C(=O)N[C@@H](Cc1ccccc1)C(=O)N[C@H](C(=O)N[C@@H](CCC(=O)O)C(=O)N[C@@H](Cc1c[nH]c2ccccc12)C(=O)N[C@@H](CC(C)C)C(=O)N[C@@H](CC(C)C)C(=O)N[C@@H](C)C(=O)NCC(=O)NCC(=O)N1CCC[C@H]1C(=O)N[C@@H](CO)C(=O)N[C@@H](CO)C(=O)NCC(=O)N[C@@H](C)C(=O)N1CCC[C@H]1C(=O)N1CCC[C@H]1C(=O)N1CCC[C@H]1C(=O)N[C@@H](CO)C(N)=O)[C@@H](C)CC [HEC-PT109]	10.28	9.85	9.15
CC[C@H](C)[C@H](NC(=O)[C@H](CO)NC(=O)[C@H](Cc1ccc(O)cc1)NC(=O)[C@H](CC(=O)O)NC(=O)[C@H](CO)NC(=O)[C@@H](NC(=O)[C@](C)(Cc1ccccc1F)NC(=O)[C@@H](NC(=O)CNC(=O)[C@H](CCC(N)=O)NC(=O)C(C)(C)NC(=O)[C@@H](N)Cc1ccc(O)cc1)[C@@H](C)O)[C@@H](C)O)C(=O)N[C@@H](CC(C)C)C(=O)N[C@@H](CC(C)C)C(=O)N[C@@H](CC(=O)O)C(=O)N[C@@H](CCC(=O)O)C(=O)N[C@@H](CCCCNC(=O)COCCOCCNC(=O)CC[C@H](NC(=O)CCCCCCCCCCCCCCCCC(=O)O)C(=O)O)C(=O)N[C@@H](CCCNC(=N)N)C(=O)N[C@@H](CCC(N)=O)C(=O)NC(C)(C)C(=O)N[C@@H](CCC(=O)O)C(=O)N[C@@H](Cc1ccccc1)C(=O)N[C@H](C(=O)N[C@@H](CCC(=O)O)C(=O)N[C@@H](Cc1c[nH]c2ccccc12)C(=O)N[C@@H](CC(C)C)C(=O)N[C@@H](CC(C)C)C(=O)N[C@@H](C)C(=O)NCC(=O)NCC(=O)N1CCC[C@H]1C(=O)N[C@@H](CO)C(=O)N[C@@H](CO)C(=O)NCC(=O)N[C@@H](C)C(=O)N1CCC[C@H]1C(=O)N1CCC[C@H]1C(=O)N1CCC[C@H]1C(=O)N[C@@H](CO)C(N)=O)[C@@H](C)CC [HEC-PT110]	10.35	9.94	8.88
CC[C@H](C)[C@H](NC(=O)[C@H](Cc1ccccc1)NC(=O)[C@H](C)NC(=O)[C@H](CCC(N)=O)NC(=O)[C@H](CCC(N)=O)NC(=O)[C@H](CCCNC(=N)N)NC(=O)[C@H](CCCCNC(=O)COCCOCCNC(=O)CC[C@H](NC(=O)CCCCCCCCCCCCCCCCC(=O)O)C(=O)O)NC(=O)[C@H](CCC(=O)O)NC(=O)[C@H](CC(=O)O)NC(=O)[C@H](CC(C)C)NC(=O)[C@H](CC(C)C)NC(=O)[C@@H](NC(=O)[C@H](CO)NC(=O)[C@H](Cc1ccc(O)cc1)NC(=O)[C@H](CC(=O)O)NC(=O)[C@H](CO)NC(=O)[C@@H](NC(=O)[C@](C)(Cc1ccccc1F)NC(=O)[C@@H](NC(=O)CNC(=O)[C@H](Cc1c[nH]cn1)NC(=O)C(C)(C)NC(=O)[C@@H](N)Cc1ccc(O)cc1)[C@@H](C)O)[C@@H](C)O)[C@@H](C)CC)C(=O)N[C@@H](CCC(=O)O)C(=O)N[C@@H](Cc1ccc(O)cc1)C(=O)N[C@@H](CC(C)C)C(=O)N[C@@H](CC(C)C)C(=O)N[C@@H](CCC(=O)O)C(=O)NCC(=O)NCC(=O)N1CCC[C@H]1C(=O)N[C@@H](CO)C(=O)N[C@@H](CO)C(=O)NCC(=O)N[C@@H](C)C(=O)N1CCC[C@H]1C(=O)N1CCC[C@H]1C(=O)N1CCC[C@H]1C(=O)N[C@@H](CO)C(=O)O [HEC-PT118]	9.89	8.92	9.66
CC[C@H](C)[C@H](NC(=O)[C@H](Cc1ccccc1)NC(=O)[C@H](C)NC(=O)[C@H](CCCNC(=N)N)NC(=O)[C@H](CCC(N)=O)NC(=O)[C@H](CCCNC(=N)N)NC(=O)[C@H](CCCCNC(=O)COCCOCCNC(=O)CC[C@H](NC(=O)CCCCCCCCCCCCCCCCC(=O)O)C(=O)O)NC(=O)[C@H](CCC(=O)O)NC(=O)[C@H](CC(=O)O)NC(=O)[C@H](CC(C)C)NC(=O)[C@H](CC(C)C)NC(=O)[C@@H](NC(=O)[C@H](CO)NC(=O)[C@H](Cc1ccc(O)cc1)NC(=O)[C@H](CC(=O)O)NC(=O)[C@H](CO)NC(=O)[C@@H](NC(=O)[C@](C)(Cc1ccccc1F)NC(=O)[C@@H](NC(=O)CNC(=O)[C@H](Cc1c[nH]cn1)NC(=O)C(C)(C)NC(=O)[C@@H](N)Cc1ccc(O)cc1)[C@@H](C)O)[C@@H](C)O)[C@@H](C)CC)C(=O)N[C@@H](CCC(=O)O)C(=O)N[C@@H](Cc1ccc(O)cc1)C(=O)N[C@@H](CC(C)C)C(=O)N[C@@H](CC(C)C)C(=O)N[C@@H](CCC(=O)O)C(=O)NCC(=O)NCC(=O)N1CCC[C@H]1C(=O)N[C@@H](CO)C(=O)N[C@@H](CO)C(=O)NCC(=O)N[C@@H](C)C(=O)N1CCC[C@H]1C(=O)N1CCC[C@H]1C(=O)N1CCC[C@H]1C(=O)N[C@@H](CO)C(=O)O [HEC-PT120]	9.73	9.39	9.70
CC[C@H](C)[C@H](NC(=O)[C@H](Cc1ccccc1)NC(=O)[C@H](C)NC(=O)[C@H](CCCCN)NC(=O)[C@H](CCC(N)=O)NC(=O)[C@H](CCCNC(=N)N)NC(=O)[C@H](CCCCNC(=O)COCCOCCNC(=O)CC[C@H](NC(=O)CCCCCCCCCCCCCCCCC(=O)O)C(=O)O)NC(=O)[C@H](CCC(=O)O)NC(=O)[C@H](CC(=O)O)NC(=O)[C@H](CC(C)C)NC(=O)[C@H](CC(C)C)NC(=O)[C@@H](NC(=O)[C@H](CO)NC(=O)[C@H](Cc1ccc(O)cc1)NC(=O)[C@H](CC(=O)O)NC(=O)[C@H](CO)NC(=O)[C@@H](NC(=O)[C@](C)(Cc1ccccc1F)NC(=O)[C@@H](NC(=O)CNC(=O)[C@H](Cc1c[nH]cn1)NC(=O)C(C)(C)NC(=O)[C@@H](N)Cc1ccc(O)cc1)[C@@H](C)O)[C@@H](C)O)[C@@H](C)CC)C(=O)N[C@@H](CCC(=O)O)C(=O)N[C@@H](Cc1ccc(O)cc1)C(=O)N[C@@H](CC(C)C)C(=O)N[C@@H](CC(C)C)C(=O)N[C@@H](C)C(=O)NCC(=O)NCC(=O)N1CCC[C@H]1C(=O)N[C@@H](CO)C(=O)N[C@@H](CO)C(=O)NCC(=O)N[C@@H](C)C(=O)N1CCC[C@H]1C(=O)N1CCC[C@H]1C(=O)N1CCC[C@H]1C(=O)N[C@@H](CO)C(N)=O [HEC-PT121]	10.09	9.56	9.05
